Source: publication PMC8879959, “In Vivo Antistress Effects of Synthetic Flavonoids in Mice: Behavioral and Biochemical Approach” (Molecules, 2022)
Values after ≈ are worked out from the molar mass of the structure shown. Where two headings read alike, the source gives them in different places.

Assays:
mice [1] = assay: Swimming endurance test; assay type: in vivo, Balb/C mice; settings: flavonoids 10 mg/kg, standard diazepam 2 mg/kg IP, 15 days; recorded for 30 min; mean ± SEM, n = 8
Experimental: Animals were divided at random into two groups of 8. Tween 80 (2%) was given to the control group, while animals in each group were treated with 10 mg/kg of each flavonoid. […] All the doses were given constantly for 15 days. On 15th day, one hour after the dose administration, all the animals were allowed to swim in isolation in a glass tank. The time of immobility for each animal was recorded for a period of 30 min [26, 27].

mice [2] = assay: Biochemical parameters in blood after restraint stress; assay type: in vivo, Balb/C mice; settings: flavonoids 10 mg/kg, standard diazepam 2 mg/kg, 15 days, mean ± SEM
Description: (§1) The adhesive tape was removed, and blood samples were collected. After blood collection, the animals were sacrificed, and the brain and vital organs were isolated and weighed.
After restrain test, blood samples were collected for the assessment of blood glucose, triglycerides and total cholesterol levels, using available commercial kits. […]

mice [3] = assay: Restraint stress, organ weights; assay type: in vivo, Balb/C mice; settings: restraint stress 2 h; flavonoids 10 mg/kg p.o., standard diazepam 2 mg/kg IP, 15 days; mean ± SEM
Description: as §1

mice [4] = assay: Biochemical parameters in brain after restraint stress; assay type: in vivo, Balb/C mice; settings: flavonoids 10 mg/kg, standard diazepam 2 mg/kg, 15 days, mean ± SEM
[5] = tested on: acetic acid-induced stress mice; assay: Chemical induced stress (acetic acid model, writhes); assay type: in vivo, Balb/C mice
Description: The anti-stress effect of synthesized flavonoids was screened for chemical-induced stress using the acetic acid model. Animals were randomly assigned into two groups of 8. The control group received Tween 80 (2%). […] The treatments in all groups were given persistently for a period of 15 days.

[6] = DPPH free radical scavenging assay; assay type: biochemical; settings: concentration range 6.25–50 μg/mL, absorbance 517 nm
Experimental: Scavenging activities for DPPH and ABTS were calculated and the IC50 was determined.

[7] = Mus musculus, ip, 360 h; read-out: Antistress Response (%)
[8] = flavonoids 10 mg/kg, standard diazepam 2 mg/kg IP, 15 days; acetic acid i.p. 0.1 mL (6% v/v), writhes within 20 min; mean ± SEM, n = 8
[9] = Mus musculus, ip, 360 h, read-out: Antistress Response (%)

O=c1cc(-c2ccccc2)oc2ccccc12 [F1]
Immobility Time (mice [1]): 4.05 ± 0.45 min | Glucose (blood) (mice [2]): 105 ± 2.15 mg/dL | TGs (blood triglycerides) (mice [2]): 54.39 ± 0.87 | Total Ch (blood total cholesterol) (mice [2]): 81.33 ± 0.61 | Weight of Adrenal Gland (mice [3]): 8.13 ± 1.69 mg | Weight of Brain (mice [3]): 398.1 ± 2.57 mg | Weight of Spleen (mice [3]): 171.5 ± 2.71 mg | Catalase (brain) (mice [4]): 16.33 ± 0.69 IU/dL | SOD (brain) (mice [4]): 7.96 ± 0.60 IU/dL | TBARS (brain lipid peroxidation) (mice [4]): 19.42 ± 0.51 nmol/g | inhibition in vivo at 10 mg/kg [5, 7]: 58.9% | Number of Writhes [5, 8]: 19.45 ± 1.89

Cc1ccc(-c2cc(=O)c3ccccc3o2)cc1 [F2]
Immobility Time (mice [1]): 3.12 ± 0.38 min | Glucose (blood) (mice [2]): 99.23 ± 1.69 | TGs (blood triglycerides) (mice [2]): 45.09 ± 0.67 | Total Ch (blood total cholesterol) (mice [2]): 78.61 ± 0.78 | Weight of Adrenal Gland (mice [3]): 7.63 ± 1.11 mg | Weight of Brain (mice [3]): 401.6 ± 3.11 mg | Weight of Spleen (mice [3]): 180.4 ± 2.38 mg | Catalase (brain) (mice [4]): 18.21 ± 0.61 IU/dL | SOD (brain) (mice [4]): 8.77 ± 0.59 IU/dL | TBARS (brain lipid peroxidation) (mice [4]): 18.72 ± 0.62 nmol/g | inhibition in vivo at 10 mg/kg [5, 7]: 72.3%

COc1ccc(-c2cc(=O)c3ccccc3o2)cc1 [F3]
Immobility Time (mice [1]): 2.88 ± 0.26 min | Glucose (blood) (mice [2]): 98.45 ± 1.51 | TGs (blood triglycerides) (mice [2]): 44.69 ± 0.37 | Total Ch (blood total cholesterol) (mice [2]): 78.43 ± 0.93 | Weight of Adrenal Gland (mice [3]): 7.22 ± 1.51 mg | Weight of Brain (mice [3]): 411.3 ± 2.93 mg | Weight of Spleen (mice [3]): 181.7 ± 2.06 mg | Catalase (brain) (mice [4]): 18.92 ± 0.51 IU/dL | SOD (brain) (mice [4]): 9.42 ± 0.87 IU/dL | TBARS (brain lipid peroxidation) (mice [4]): 18.44 ± 0.63 nmol/g | inhibition in vivo at 10 mg/kg [5, 7]: 74.4%

O=c1cc(-c2ccc(Cl)cc2)oc2ccccc12 [F4]
Immobility Time (mice [1]): 3.21 ± 0.19 min | Glucose (blood) (mice [2]): 100.92 ± 1.91 | TGs (blood triglycerides) (mice [2]): 47.51 ± 0.38 | Total Ch (blood total cholesterol) (mice [2]): 80.76 ± 0.91 | Weight of Adrenal Gland (mice [3]): 8.03 ± 1.98 mg | Weight of Brain (mice [3]): 402.4 ± 3.19 mg | Weight of Spleen (mice [3]): 173.1 ± 2.66 mg | Catalase (brain) (mice [4]): 17.88 ± 0.59 IU/dL | SOD (brain) (mice [4]): 9.31 ± 0.78 IU/dL | TBARS (brain lipid peroxidation) (mice [4]): 19.09 ± 0.49 nmol/g | inhibition in vivo at 10 mg/kg [5, 9]: 65.8% | Number of Writhes [5, 8]: 16.21 ± 2.09

CN(C)c1ccc(-c2cc(=O)c3ccccc3o2)cc1 [F5]
Immobility Time (mice [1]): 3.64 ± 0.21 min | Glucose (blood) (mice [2]): 101.33 ± 1.72 | TGs (blood triglycerides) (mice [2]): 46.72 ± 0.51 | Total Ch (blood total cholesterol) (mice [2]): 81.82 ± 0.85 | Weight of Adrenal Gland (mice [3]): 8.12 ± 1.81 mg | Weight of Brain (mice [3]): 412.7 ± 2.81 mg | Weight of Spleen (mice [3]): 170.3 ± 2.61 mg | Catalase (brain) (mice [4]): 17.11 ± 0.51 IU/dL | SOD (brain) (mice [4]): 8.04 ± 0.57 IU/dL | TBARS (brain lipid peroxidation) (mice [4]): 19.02 ± 0.71 nmol/g | inhibition in vivo at 10 mg/kg [5, 7]: 64.6% | Number of Writhes [5, 8]: 16.31 ± 2.58

O=c1cc(-c2ccc(C(F)(F)F)cc2)oc2ccccc12 [F6]
Immobility Time (mice [1]): 3.41 ± 0.23 min | Glucose (blood) (mice [2]): 102.09 ± 1.62 | TGs (blood triglycerides) (mice [2]): 47.26 ± 0.44 | Total Ch (blood total cholesterol) (mice [2]): 82.01 ± 0.79 | IC50, scavenging against DPPH [6]: 174.24 ± 2.71 µg/mL (≈ 600 µM) | Weight of Adrenal Gland (mice [3]): 8.09 ± 1.77 mg | Weight of Brain (mice [3]): 408.3 ± 2.60 mg | Weight of Spleen (mice [3]): 171.1 ± 2.40 mg | Catalase (brain) (mice [4]): 17.36 ± 0.62 IU/dL | SOD (brain) (mice [4]): 8.13 ± 0.51 IU/dL | TBARS (brain lipid peroxidation) (mice [4]): 18.96 ± 0.60 nmol/g | inhibition in vivo at 10 mg/kg [5, 7]: 64.1% | Number of Writhes [5, 8]: 17.01 ± 1.89

O=c1c(O)c(-c2ccccc2)oc2ccccc12 [OF1]
Immobility Time (mice [1]): 4.32 ± 0.31 min | Glucose (blood) (mice [2]): 105 ± 1.77 mg/dL | TGs (blood triglycerides) (mice [2]): 51.22 ± 0.66 | Total Ch (blood total cholesterol) (mice [2]): 80.81 ± 0.72 | Weight of Adrenal Gland (mice [3]): 8.09 ± 1.34 mg | Weight of Brain (mice [3]): 397.4 ± 3.76 mg | Weight of Spleen (mice [3]): 188.4 ± 2.24 mg | Catalase (brain) (mice [4]): 17.02 ± 0.71 IU/dL | SOD (brain) (mice [4]): 8.46 ± 0.76 IU/dL | TBARS (brain lipid peroxidation) (mice [4]): 19.25 ± 0.51 nmol/g | inhibition in vivo at 10 mg/kg [5, 7]: 63.4% | Number of Writhes [5, 8]: 17.32 ± 2.33

Cc1ccc(-c2oc3ccccc3c(=O)c2O)cc1 [OF2]
Immobility Time (mice [1]): 2.95 ± 0.37 min | Glucose (blood) (mice [2]): 97.56 ± 1.61 | TGs (blood triglycerides) (mice [2]): 42.88 ± 0.41 | Total Ch (blood total cholesterol) (mice [2]): 76.82 ± 0.86 | Weight of Adrenal Gland (mice [3]): 7.21 ± 1.87 mg | Weight of Brain (mice [3]): 414.2 ± 2.51 mg | Weight of Spleen (mice [3]): 190.5 ± 2.76 mg | Catalase (brain) (mice [4]): 18.74 ± 0.67 IU/dL | SOD (brain) (mice [4]): 9.02 ± 0.54 IU/dL | TBARS (brain lipid peroxidation) (mice [4]): 17.74 ± 0.56 nmol/g | inhibition in vivo at 10 mg/kg [5, 7]: 74.3%

COc1ccc(-c2oc3ccccc3c(=O)c2O)cc1 [OF3]
Immobility Time (mice [1]): 2.33 ± 0.28 min | Glucose (blood) (mice [2]): 97.06 ± 1.71 | TGs (blood triglycerides) (mice [2]): 43.11 ± 0.36 | Total Ch (blood total cholesterol) (mice [2]): 76.09 ± 0.64 | IC50, scavenging against DPPH [6]: 25.54 ± 1.21 µg/mL (≈ 95.2 µM) | Weight of Adrenal Gland (mice [3]): 6.79 ± 1.10 mg | Weight of Brain (mice [3]): 413.6 ± 2.66 mg | Weight of Spleen (mice [3]): 194.8 ± 2.11 mg | Catalase (brain) (mice [4]): 19.02 ± 0.77 IU/dL | SOD (brain) (mice [4]): 9.58 ± 0.66 IU/dL | TBARS (brain lipid peroxidation) (mice [4]): 17.49 ± 0.61 nmol/g | inhibition in vivo at 10 mg/kg [5, 7]: 80.9%

O=c1c(O)c(-c2ccc(Cl)cc2)oc2ccccc12 [OF4]
Immobility Time (mice [1]): 3.44 ± 0.25 min | Glucose (blood) (mice [2]): 101.15 ± 1.66 | TGs (blood triglycerides) (mice [2]): 46.92 ± 0.44 | Total Ch (blood total cholesterol) (mice [2]): 78.33 ± 0.76 | Weight of Adrenal Gland (mice [3]): 7.91 ± 1.91 mg | Weight of Brain (mice [3]): 401.8 ± 2.34 mg | Weight of Spleen (mice [3]): 183.9 ± 2.56 mg | Catalase (brain) (mice [4]): 17.45 ± 0.66 IU/dL | SOD (brain) (mice [4]): 8.35 ± 0.64 IU/dL | TBARS (brain lipid peroxidation) (mice [4]): 18.67 ± 0.76 nmol/g | inhibition in vivo at 10 mg/kg [5, 9]: 67.1% | Number of Writhes [5, 8]: 14.18 ± 2.17

CN(C)c1ccc(-c2oc3ccccc3c(=O)c2O)cc1 [OF5]
Immobility Time (mice [1]): 3.25 ± 0.29 min | Glucose (blood) (mice [2]): 101.09 ± 1.14 | TGs (blood triglycerides) (mice [2]): 46.24 ± 0.39 | Total Ch (blood total cholesterol) (mice [2]): 77.91 ± 0.97 | Weight of Adrenal Gland (mice [3]): 8.04 ± 1.18 mg | Weight of Brain (mice [3]): 400.5 ± 2.21 mg | Weight of Spleen (mice [3]): 186.3 ± 2.74 mg | Catalase (brain) (mice [4]): 17.06 ± 0.61 IU/dL | SOD (brain) (mice [4]): 8.11 ± 0.51 IU/dL | TBARS (brain lipid peroxidation) (mice [4]): 18.56 ± 0.51 nmol/g | inhibition in vivo at 10 mg/kg [5, 7]: 63.3% | Number of Writhes [5, 8]: 16.44 ± 3.04

O=c1c(O)c(-c2ccc(C(F)(F)F)cc2)oc2ccccc12 [OF6]
Immobility Time (mice [1]): 3.34 ± 0.25 min | Glucose (blood) (mice [2]): 100.32 ± 1.29 | TGs (blood triglycerides) (mice [2]): 44.02 ± 0.30 | Total Ch (blood total cholesterol) (mice [2]): 77.02 ± 0.97 | IC50, scavenging against DPPH [6]: 122.33 ± 1.98 µg/mL (≈ 399 µM) | Weight of Adrenal Gland (mice [3]): 8.11 ± 1.31 mg | Weight of Brain (mice [3]): 403.9 ± 2.239 mg | Weight of Spleen (mice [3]): 179.1 ± 2.30 mg | Catalase (brain) (mice [4]): 17.01 ± 0.52 IU/dL | SOD (brain) (mice [4]): 8.03 ± 0.49 IU/dL | TBARS (brain lipid peroxidation) (mice [4]): 18.10 ± 0.51 nmol/g | inhibition in vivo at 10 mg/kg [5, 9]: 66.5% | Number of Writhes [5, 8]: 15.88 ± 2.11

CN1C(=O)CN=C(c2ccccc2)c2cc(Cl)ccc21 [Standard, Diazepam, reference compound]
Immobility Time (Min) (mice [1]): reduced the immobility time to a significant level | Glucose (blood) (mice [2]): 108.2 ± 1.06 mg/dL | TGs (blood triglycerides) (mice [2]): 38.52 ± 0.57 | Total Ch (blood total cholesterol) (mice [2]): 75.62 ± 0.65 | Weight of Adrenal Gland (mice [3]): 10.58 ± 5.77 ^ns mg | Weight of Spleen (mice [3]): 158.3 ± 2.89 mg
